We go through 27 compounds from US12091425B2 (AMGEN INC., priority 2016, dated 2024).

The IC50 is the concentration that inhibits the measured activity by half.

T1 sequence (Q07820 171-327): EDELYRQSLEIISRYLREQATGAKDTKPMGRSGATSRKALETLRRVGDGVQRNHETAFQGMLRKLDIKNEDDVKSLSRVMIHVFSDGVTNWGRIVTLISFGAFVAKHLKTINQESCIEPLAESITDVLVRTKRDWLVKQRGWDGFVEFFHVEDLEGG

One test addresses T1, Mcl-1/Bim interaction, recombinant human Mcl-1 (171-327) (Homo sapiens, UniProt Q07820).
T1 construct: made in house
Description: Cell free Mcl-1: Bim Affinity Assay (Mcl-1 HTRF). The conditions noted are these: TR-FRET, 0.1 nM Mcl-1 (171-327), 0.05 nM biotin-Bim (51-76). The class given is binding. Summed up:
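Read-out is time-resolved FRET after overnight incubation, using a biotin-labelled peptide from human Bim (51-76) as the binding partner; IC50 was derived from competition curves.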
On the technique in general: In TR-FRET formats the signal depends on donor and acceptor labels being close together.
In the case of `O=C1NS(=O)(=O)C[C@H](CO)C/C=C/[C@H](O)[C@@H]2CC[C@H]2CN2C[C@@]3(CCCc4cc(Cl)ccc43)COc3ccc1cc32` [Example 1085, (1S,3′R,6′R,7′S,8′E,11′S)-6-chloro-7′-hydroxy-11′-(hydroxymethyl)-3,4-dihydro-2H,15′H-spiro [naphthalene-1,22′-[20]oxa[13]thia[1,14]diazatetracyclo[14.7.2.0^3,6.0^19,24]pentacosa [8,16,18,24]tetraen]-15′-one 13′,13′-dioxide], the IC50 stood at 2.06 nM.

Consider `CC[C@@H]1CC/C=C/[C@H](OCCOC)[C@@H]2CC[C@H]2CN2C[C@@]3(CCCc4cc(Cl)ccc43)COc3ccc(cc32)C(=O)NS1(=O)=O` [Example 980, (1S,3′R,6′R,7′S,8′E,12′R)-6-chloro-12′-ethyl-7′-(2-methoxyethoxy)-3,4-dihydro-2H,15′H-spiro[naphthalene-1,22′-[20]oxa[13]thia[1,14]diazatetracyclo[14.7.2.0^3,6.0^19,24]pentacosa [8,16,18,24]tetraen]-15′-one 13′,13′-dioxide], for which the IC50 is 0.755 nM.

Consider `COc1ccc(CN2CCCCS(=O)(=O)NC(=O)c3ccc4c(c3)N(C[C@@H]3CC[C@H]3C2=O)C[C@@]2(CCCc3cc(Cl)ccc32)CO4)cc1` [Example 96, (1S,3′R,6′R)-6-chloro-8′-(4-methoxybenzyl)-3,4-dihydro-2H,7′H,15′H-spiro[naphthalene-1,22′-[20]oxa[13]thia[1,8,14]triazatetracyclo[14.7.2.0^3,6.0^19,24]pentacosa[16,18,24]trien]-7′,15′-dione 13′,13′-dioxide], for which the IC50 was 31.7 nM.

In the case of `C[C@]12CC[C@H]1CN1C[C@@]3(CCCc4cc(Cl)ccc43)COc3ccc(cc31)C(=O)NS(=O)(=O)CCCCC[C@@H]2O` (single isomer, unassigned) [Example 123], the IC50 came to 4.3 nM.

Consider `CCN1CC/C=C/[C@H](OCC(=O)O)[C@@H]2CC[C@H]2CN2C[C@@]3(CCCc4cc(Cl)ccc43)COc3ccc(cc32)C(=O)NS1(=O)=O` [Example 44, (((1S,3′R,6′R,7′S,8′E)-6-chloro-12′-ethyl-13′,13′-dioxido-15′-oxo-3,4-dihydro-2H-spiro[naphthalene-1,22′-[20]oxa[13]thia[1,12,14]triazatetracyclo[14.7.2.0^3,6.0^19,24]pentacosa[8,16,18,24]tetraen]-7′-yl)oxy)acetic Acid], for which the IC50 worked out at 0.115 nM.

Turning to `CC(=O)N1C[C@@H]2C/C=C/[C@H](O)[C@@H]3CC[C@H]3CN3C[C@@]4(CCCc5cc(Cl)ccc54)COc4ccc(cc43)C(=O)NS(=O)(=O)[C@H]2C1` (single isomer, unassigned) [Example 339], the IC50 was determined as 2.71 nM.

For the compound `CC[C@@H]1CC/C=C/[C@H](OCCO)[C@@H]2CC[C@H]2CN2C[C@@]3(CCCc4cc(Cl)ccc43)COc3ccc(cc32)C(=O)NS1(=O)=O` [Example 970, (1S,3′R,6′R,7′S,8′E,12′R)-6-chloro-12′-ethyl-7′-(2-hydroxyethoxy)-3,4-dihydro-2H,15′H-spiro[naphthalene-1,22′-[20]oxa[13]thia[1,14]diazatetracyclo[14.7.2.0^3,6.0^19,24]pentacosa [8,16,18,24]tetraen]-15′-one 13′,13′-dioxide], the IC50 was found to be 0.859 nM.

`CC[C@@H]1CC/C=C\[C@@H](NC(C)=O)[C@@H]2CC[C@H]2CN2C[C@@]3(CCCc4cc(Cl)ccc43)COc3ccc(cc32)C(=O)NS1(=O)=O` (single isomer, unassigned) [Example 1079]: the IC50 turned out to be 5.48 nM.

On to `CCC[C@@H]1CC/C=C/[C@H](O)[C@@H]2CC[C@H]2CN2C[C@@]3(CCCc4cc(Cl)ccc43)COc3ccc(cc32)C(=O)NS1(=O)=O` (single isomer, unassigned) [Example 434], for which the IC50 came to 0.273 nM.

Regarding `O=C1NS(=O)(=O)[C@H](CO)CC/C=C/[C@H](O)[C@@H]2CC[C@H]2CN2C[C@@]3(CCCc4cc(Cl)ccc43)COc3ccc1cc32` (single isomer, unassigned) [Example 445], the IC50 was found to be 0.461 nM.

For the compound `COC(=O)C1CCN(C(=O)[C@H]2CC/C=C\[C@H](O)[C@@H]3CC[C@H]3CN3C[C@@]4(CCCc5cc(Cl)ccc54)COc4ccc(cc43)C(=O)NS2(=O)=O)CC1` [Example 143], the IC50 is 2 nM.

As to `O=C1NS(=O)(=O)C(CCOC(F)(F)F)CC/C=C/[C@H](O)[C@@H]2CC[C@H]2CN2C[C@@]3(CCCc4cc(Cl)ccc43)COc3ccc1cc32` (single isomer, unassigned) [Example 1012], the IC50 came out at 0.698 nM.

As for `O=C1NS(=O)(=O)[C@H]2C[C@H](CC[C@H](O)[C@@H]3CC[C@H]3CN3C[C@@]4(CCCc5cc(Cl)ccc54)COc4ccc1cc43)C2` [Example 103, (1S,3′R,6′R,7′S,10′R,12′R)-6-chloro-7′-hydroxy-3,4-dihydro-2H,15′H-spiro[naphthalene-1,22′-[20]oxa[13]thia[1,14]diazapentacyclo[14.7.2.1^10,120^3,6.0^19,24]hexacosa[16,18,24]trien]-15′-one 13′,13′-dioxide], the IC50 is 1.43 nM.

As to `CC[C@H]1CCCOC[C@@H]2CC[C@H]2CN2C[C@@]3(CCCc4cc(Cl)ccc43)COc3ccc(cc32)C(=O)NS1(=O)=O` (single isomer, unassigned) [Example 369], the IC50 was determined as 3.98 nM.

As to `CC[C@@H]1CCCOC[C@@H]2CC[C@H]2CN2C[C@@]3(CCCc4cc(Cl)ccc43)COc3ccc(cc32)C(=O)NS1(=O)=O` (single isomer, unassigned) [Example 368], the IC50 is 3.74 nM.

Still in this test, the particulars now being: cell free Mcl-1:Bim TR-FRET, recombinant human Mcl-1 (171-327).
With `CC[C@@H]1C/C=C/[C@H](OC)[C@@H]2CC[C@H]2CN2C[C@@]3(CCCc4cc(Cl)ccc43)COc3ccc(cc32)C(=O)NS1(=O)=O` [Example 763, (1S,3′R,6′R,7′S,8′E,11′R)-6-chloro-11′-ethyl-7′-methoxy-3,4-dihydro-2H,14′H-spiro[naphthalene-1,21′-[19]oxa[12]thia[1,13]diazatetracyclo[13.7.2.0^3,6.0^18,23]tetracosa[8,15,17,23]tetraen]-14′-one 12′,12′-dioxide], the IC50 is 2.93 nM.

In the case of `COC[C@@H]1C/C=C/[C@H](O)[C@@H]2CC[C@H]2CN2C[C@@]3(CCCc4cc(Cl)ccc43)COc3ccc(cc32)C(=O)NS1(=O)=O` (single isomer, unassigned) [Example 773], the IC50 was determined as 2.35 nM.

Consider `O=C1NS(=O)(=O)C/C=C/C[C@H](O)[C@@H]2CC[C@H]2CN2C[C@@]3(CCCc4cc(Cl)ccc43)COc3ccc1cc32` [Example 771, (1S,3′R,6′R,7′S,9′E)-6-chloro-7′-hydroxy-3,4-dihydro-2H,14′H-spiro[naphthalene-1,21′-[19]oxa[12]thia[1,13]diazatetracyclo [13.7.2.0^3,6.0^18,23]tetracosa[9,15,17,23]tetraen]-14′-one 12′,12′-dioxide], for which the IC50 stood at 4.09 nM.

As to `CN(C(=O)C1CC1)[C@@H]1CCCCCS(=O)(=O)NC(=O)c2ccc3c(c2)N(C[C@@H]2CC[C@H]21)C[C@@]1(CCCc2cc(Cl)ccc21)CO3` (single isomer, unassigned) [Example 943], the IC50 came to 16.2 nM.

For `O=C1NS(=O)(=O)CCOCCC[C@@H]2CC[C@H]2CN2C[C@@]3(CCCc4ccccc43)COc3ccc1cc32` (stereo in doubt) [Example 824, (3S,6R,22S)-3′,4′-dihydro-2′H,15H-spiro[10,20-dioxa-13-thia-1,14-diazatetracyclo[14.7.2.0^3,6.^019,24]pentacosa-16,18,24-triene-22,1′-naphthalen]-15-one 13,13-dioxide], the IC50 is 20.1 nM.

Consider `C[C@@H]1CCC[C@H](O)[C@@H]2CC[C@H]2CN2C[C@@]3(CCCc4cc(Cl)ccc43)COc3ccc(cc32)C(=O)NS1(=O)=O` [Example 761, (1S,3′R,6′R,7′S,11′R)-6-chloro-7′-hydroxy-11′-methyl-3,4-dihydro-2H,14′H-spiro[naphthalene-1,21′-[19]oxa[12]thia[1,13]diazatetracyclo[13.7.2.0^3,6.0^18,23]tetracosa[15,17,23]trien]-14′-one 12′,12′-dioxide], for which the IC50 came out at 1.78 nM.

For `CC(=O)N(C)[C@@H]1CCCCCS(=O)(=O)NC(=O)c2ccc3c(c2)N(C[C@@H]2CC[C@H]21)C[C@@]1(CCCc2cc(Cl)ccc21)CO3` (single isomer, unassigned) [Example 941], the IC50 worked out at 8.33 nM.

Turning to `C[C@@H]1CC[C@@H]2C[C@H]2[C@H](O)[C@@H]2CC[C@H]2CN2C[C@@]3(CCCc4cc(Cl)ccc43)COc3ccc(cc32)C(=O)NS1(=O)=O` (single isomer, unassigned) [Example 951], the IC50 worked out at 13.1 nM.

`CC#CC1=CC(O)CCC(C)S(=O)(=O)NC(=O)c2ccc3c(c2)N(CC2CCC12)CC1(CCCc2cc(Cl)ccc21)CO3` (single isomer, unassigned) [Example 606]: the IC50 was 13.5 nM.

Turning to `O=C1NS(=O)(=O)CCC/C=C/C[C@@H]2CC[C@H]2CN2C[C@@]3(CCCc4cc(Cl)ccc43)COc3ccc1cc32` (single isomer, unassigned) [Example 495], the IC50 worked out at 2.48 nM.

For `O=C1NS(=O)(=O)CCCCC[C@@H](CO)[C@@H]2CC[C@H]2CN2C[C@@]3(CCCc4cc(Cl)ccc43)COc3ccc1cc32` (single isomer, unassigned) [Example 898, (1S,3′R,6′R,7′R)-6-chloro-7′-(hydroxymethyl)-3,4-dihydro-2H,15′H-spiro[naphthalene-1,22′-[20]oxa[13]thia[1,14]diazatetracyclo[14.7.2.0^3,6.0^19,24]pentacosa [16,18,24]trien]-15′-one 13′,13′-dioxide or (1S,3′R,6′R,7′S)-6-chloro-7′-(hydroxymethyl)-3,4-dihydro-2H,15′H-spiro[naphthalene-1,22′[20]oxa[13]thia[1,14]diazatetracyclo[14.7.2.0^3,6.0^19,24]pentacosa[16,18,24]trien]-15′-one 13′,13′-dioxide], the IC50 was found to be 4.03 nM.

Consider `C[C@@H]1[C@H](O)C/C=C/C[C@@H]2CC[C@H]2CN2C[C@@]3(CCCc4cc(Cl)ccc43)COc3ccc(cc32)C(=O)NS1(=O)=O` (single isomer, unassigned) [Example 506], for which the IC50 was determined as 15.5 nM.
